Values after ≈ are worked out from the molar mass of the structure shown.
Columns and labels:
Format in all cases: functional
Bacillus subtilis = assay: Antibacterial activity against Bacillus subtilis IFO 3108 by twofold dilution method
Alternaria = assay: Antifungal activity against Alternaria maritima IFO 8618 by twofold dilution method
Fusarium graminearum = assay: Antifungal activity against Gibberella zeae IFO 4474 by twofold dilution method

SMILES | MIC (Bacillus subtilis) | MIC (Alternaria) | MIC (Fusarium graminearum)
CC1=C2C(=CO[C@H](C)[C@H]2C)C(O)=C(C(=O)O)C1=O [CITRININ] | 25 µg/mL (≈ 99.9 µM) |  | 
COc1c(C)c2c(c(O)c1C/C=C(\C)CCC(=O)O)C(=O)OC2 [MYCOPHENOLIC ACID] |  | 200 µg/mL (≈ 624 µM) | 200 µg/mL (≈ 624 µM)

— ChEMBL document CHEMBL1158650, “Isolation in High Yield of Citrinin From Penicillium odoratum and of Mycophenolic Acid From Penicillium brunneo-stoloniferum” (1979)
